Results taken from US8415156B2, “Recombinant laminin-521” (Biolamina AB, priority 2010, dated 2013).

Experiments:
[1] = test system: hES cells; experiment: Embryoid body formation; format: cell-based, human; settings: same three cultures as teratoma test
Method: ES cells from LN-521 coated cell culture dishes were exposed to TrypLE™ Select for one minute at 37° C., 5% CO2, washes two times with a medium, broken into large pieces and cultured in suspension in low adhesion plates. The medium used for this was Knockout DMEM (GIBCO Invitrogen Corporation) supplemented with 2 mM L-glutamine, 20% fetal calf serum (GIBCO Invitrogen Corporation), 0.1 mM β-mercaptoethanol (GIBCO Invitrogen Corporation) and 1% non-essential amino acids (GIBCO Invitrogen Corporation). After 1-2 weeks in suspension, the embryoid bodies were transferred onto gelatin coated tissue cell culture 96-well plates (Sarstedt), cultured for 1-2 weeks, then fixed, stained with antibodies against markers of all three embryonic germ line layers (smooth muscle actin, MAP-2 and α-fetoprotein) and analyzed as described above for immunofluorescence.

[2] = test system: HS181 cells; experiment: Single cell survival / cell adhesion, 1 day after plating (Example 1); format: cell-based, human
Method: Human ES cells were cultured on r-laminin-521-coated laboratory dishes in chemically defined O3 medium (described in Rodin et al., Nature Biotechnol., vol. 28, pp. 611-615 (2010)) at 37° C. in 5% CO2. Cells were routinely passed once every 10-12 days by exposure to Trypsin-EDTA solution (GIBCO Invitrogen) for 5 minutes at 37° C. They were then gently pipetted to break into single-cell suspension and defined trypsin inhibitor (GIBCO Invitrogen) was added. The cell suspension was centrifuged […], the supernatant discarded, the cell pellet resuspended in prewarmed O3 medium, and cells were then passed through a 40 μm sieve. After that cells were plated on new r-laminin-521-coated dishes at a concentration 30 Kcells/cm^2 (1:25-1:30 split ratio). Cells were fed once a day with fresh medium prewarmed in an incubator for 1 hour, except for the first day after a passage, when only a few drops of fresh medium were added. Control cells of the same line were cultured on Matrigel (BD Biosciences) in O3 medium as described in Rodin et al., Nature Biotechnol., vol. 28, pp. 611-615 (2010). Control cells were passaged in pieces.
Ninety-six-well tissue cell culture plates were coated overnight at 4° C. with sterile solutions of the ECM proteins mouse LN-111 (Invitrogen), human recombinant LN-511, and human recombinant LN-521, all at a concentration of 30 μg/ml (5 μg/cm^2). For control cells, BD Matrigel™ hESC qualified (BD Biosciences) was used according to the manufacturer's instructions.
The assay was performed as described (Extracellular Matrix Protocols, 2000). Briefly, 96-well plates were coated by extracellular matrix proteins as described above and blocked by O3 medium containing bovine serum albumin. The ES cells were plated at a cell density of 600 cell/mm^2 upon extracellular matrix-coated plates and were left to adhere for either 1 hour or 1 day at the cell incubator. Non-adherent cells were washed away, and adherent cells were fixed for 20 min by 5% glutaraldehyde, stained by 0.1% Crystal Violet.

[3] = test system: hES cells; experiment: Clonal survival of individualized hES cells (Example 4); format: cell-based, human; settings: mTeSR1; 250 cells per cm^2; 5 days; alkaline phosphatase staining
Method: hES cells were plated in mTeSR1 medium on different coatings at a density of 250 cells per cm^2 and monitored after 5 days in culture using an alkaline phosphatase staining kit.
Next, combinations of laminin-521 and E-Cadherin were tested to determine whether the combinations could sustain clonal survival of the cells. Fixed amounts of laminin-521 were used for the cell culture dish coating in combination with titrated E-Cadherin.
Additional tests were performed to test the effects of various modifications to the mTeSR1 medium. A mixture of E-Cadherin to laminin-521 in a ratio of about 1:10 w/w was used to coat the plates. […] Time-lapse photography of the cells confirmed that laminin-521/E-Cadherin coatings facilitated cell survival through proliferation of the single cells, not through the aggregation of different cells.

[4] = test system: HS181, HS401, H1 cells; experiment: Long-term self-renewal of hES cells on LN-521 (Example 2); format: cell-based, human
Method: Human ES cells of HS181 and HS401 were cultured on LN-521-coated culture dishes in O3 medium (described in Rodin et al., Nature Biotechnol., vol. 28, pp. 611-615 (2010) with pH was adjusted to 7.35), mTeSR1 (STEMCELL Technologies) and chemically defined and xeno-free TeSR2 (STEMCELL Technologies) at 37° C., 5% CO2. Initially, cells of the lines were transferred onto a LN-521 coating from a human feeder cell layer by careful scratching using a sterile knife with subsequent trypsinization, or the cells were trypsinized into single cell suspension from a LN-511 coating. The cells were provided once a day with fresh medium pre-warmed in an incubator for one hour, except for the first day after plating, when only a few drops of fresh medium were added. Cells were routinely passed once in 10-12 days by exposure to Trypsin/EDTA (GIBCO Invitrogen Corporation, Paisley, Scotland) for 5 minutes at 37° C., 5% CO2. They were then gently pipetted to break into single-cell suspension and a Defined Trypsin Inhibitor (GIBCO Invitrogen) was added. The cell suspension was centrifuged at 25 rcf for 4 minutes, the supernatant was discarded, the cell pellet was resuspended in prewarmed O3 medium, and the cells were then passed through a 40 μm sieve. Subsequently, the cells were plated on new LN-521-coated dishes at a concentration of 30,000 cells/cm^2 in 1:25-1:30 split ratios. Control cells of the same line were cultured on Matrigel (STEMCELL Technologies) and LN-511 in O3 medium as described previously.^9
For defined and xeno-free cultures, TeSR2 (STEMCELL Technologies) medium and defined free from any animal derived component TrypLE™ Select (GIBCO Invitrogen Corporation, Paisley, Scotland) enzyme were used. The cells were passed every 10-14 days by exposure to TrypLE™ Select for 4-5 minutes at 37° C., 5% CO2. Then, the enzyme was carefully aspirated and prewarmed TeSR2 medium was added. After that, the cells were gently pipetted to break into single-cell suspension, centrifuged, the supernatant was discarded, and the cell pellet was resuspended in prewarmed TeSR2. The cells were then passed through a 40 μm sieve and plated on a fresh LN-521 coated dish.

[5] = test system: human embryonic stem cell; experiment: Survival after dissociation into single cell suspension (description); format: cell-based; settings: O3 medium; 30 Kcells/cm^2; precoated dishes
Description: In other aspects, the present disclosure provides a new material, isolated laminin-521, which permits human embryonic stem cell survival after dissociation into single cell suspension. The stem cells were dissociated into single cell suspension by Trypsin-EDTA treatment, pelleted by centrifugation, resuspended into O3 medium, filtered through a 40 μm sieve, and plated at a density of 30 Kcells/cm^2 on cell culture dishes precoated by either isolated laminin-521, laminin-511, or Matrigel. After one day in culture, the cells plated on Matrigel died, as is known in the art.

“LN-521: protein formed by joining α5, β2 and γ1 chains together; human recombinant, produced in HEK293 cells” was tested, and the “differentiation in vitro: embryoid bodies expressing markers of mesoderm, ectoderm and endoderm” value [1] was “retained the competence to form embryoid bodies”, the “adhesion at 1 day without additives compared with dishes including the ROCK inhibitor” value ([2]; 1 day after plating) was “similar” and the “adhesion at 1 day relative to Matrigel without additives” value ([2]; 1 day after plating, without additives) was 20 times. For the same substance, the “adhesion at 1 day without additives compared with dishes including the ROCK inhibitor” value ([2]; 1 day after plating, listed as LN-532) was “no ROCK inhibitor is necessary”, the “single cell survival / cells remaining attached 24 hours after plating” value ([2]; O3 medium without any additives, completely dissociated HS181 cells) was “survived” and the “clonal survival of individualized hES cells” value [3] was “Neither laminin-521 nor E-Cadherin alone permitted efficient clonal survival”. The “passages of proliferation, HS401 cells” value ([4]; O3 medium, 2 months) was ≥ 5 passages, the “passages of proliferation, H1 cells” value ([4]; O3 medium, 6 months) was ≥ 15 passages and the “passages of proliferation, HS181 cells” value ([4]; O3 medium, 9 months) was “at least 24 passages”. The “passages cultured, HS401 cells” value ([4]; TeSR2, TrypLE Select, xeno-free, 1.5 months) was 4 passages, the “passages cultured, H1 cells” value ([4]; TeSR2, TrypLE Select, xeno-free, 5 months) was 12 passages and the “plating efficacy after a passage in TeSR2 compared with O3 or mTeSR1 media” value ([4]; TeSR2 medium and TrypLE Select) was “slightly lower”. The “survival of hES cells plated from single cell suspension after one day in culture” value [5] was “survived and started to proliferate”.
